Tests used:
[1] = target: receptor tyrosine kinase c-Met (c-Met kinase domain recombination protein) (Homo sapiens (Human), UniProt P08581); experiment: Enzyme linked immunosorbent assay (ELISA) of c-Met kinase activity; format: biochemical; details: for IC50: c-Met enzyme, ELISA, read-out: IC50 (nM) mean ± SD
Protocol: The evaluation of the inhibition of the compound of the present invention on the activity of c-Met enzyme in molecular level may be assayed by conventional methods, one preferable evaluation method of which is enzyme-linked immunosorbent assay (ELISA). By measuring the inhibition ratio of the compounds against the activity of receptor tyrosine kinase protein c-Met enzyme, the median inhibitory concentration IC50 is calculated based on the inhibition ratios for various concentrations using the four-parameter method. The inhibition ratio for a sample (%)=(1−(OD value of a compound−OD value of the control well without enzyme)/(OD value of the negative control well−OD value of the control well without enzyme))×100%
(1) The enzyme reaction substrate Poly(Glu, Tyr) 4:1 was diluted to 20 μg/mL, 1254/well coated enzyme label plate with potassium ion-free PBS (10 mM sodium phosphate buffer, 150 mM NaCl, pH7.2-7.4), which was placed at 37° C. to allow to react for 12-16 h. The liquid in the wells was discarded. The plate was washed with 200 μL/well of T-PBS (potassium ion-free PBS containing 0.1% Tween-20) for three times (each for 5 min). The enzyme label plate was placed into a drying oven at 37° C. to dry for 1-2 h.
(2) To each well was added 50 µL of ATP solution diluted with reaction buffer (50 mM HEPES pH 7.4, 50 mM MgCl2, 0.5 mM MnCl2, 0.2 mM Na3VO4, 1 mM DTT), and to each well was added 1 μL of the compounds. When adding the test compounds, 6 concentration gradients were set for each compound (the starting concentrations and dilution times were determined according to the results of preliminary screening so as to ensure that the maximum inhibition ratio was about 80% and the minimum inhibition ratio was about 20%, and more than two concentration points were in the vicinity of 50% inhibition ratio), and then 504 of c-Met kinase domain recombination protein diluted with reaction buffer was added to initiate the reaction. Two ATP-free control wells were needed for each of the experiments. The reaction was placed on a shaking table at 37° C. (100 rpm) for 1 h. The liquid in the wells was discarded and the plate was washed with T-PBS for three times.
(3) The antibody PY99 was added at 1004/well (the antibody was diluted with T-PBS containing BSA (5 mg/mL) in 1:500). The reaction was performed on a shaking table at 37° C. for 0.5 h. The liquid in the wells was discarded and the plate was washed with T-PBS for three times.
(4) The horseradish peroxidase-labeled goat anti-mouse secondary antibody was added at 100 μL/well (the antibody was diluted with T-PBS containing BSA (5 mg/mL) in 1:2000), The reaction was performed on a shaking table at 37° C. for 0.5 h. The liquid in the wells was discarded and the plate was washed with T-PBS for three times.
(5) 2 mg/ml of OPD colour developing solution (diluted with 0.1M citric acid-sodium citrate buffer (pH=5.4) containing 0.03% H2O2) was added at 1004/well, and the reaction was performed at 25° C. for 1-10 min under protection from light.
(6) 2M H2SO4 was added at 50 μL/well to terminate the reaction, and the values were read by a microplate reader VERSAmax with adjustable wavelength, wherein the wavelength was 490 nm. Through calculation, the inhibitory IC50 values of the compounds of Example 2, 12 and 13 against the activity of receptor tyrosine kinase c-Met enzyme were obtained as: […]

[2] = test system: human breast cancer cells (MDA-MB-231); experiment: SRB proliferation assay, human breast cancer cells (MDA-MB-231); format: cell-based; details: MDA-MB-231, 72 hr, read-out: IC50 against MDA-MB-231 cells
Excerpt: (§1) The pharmacodynamic action of the compound of the present invention in terms of inhibiting the proliferation of cancer cells may be assayed by conventional methods, one preferable evaluation method of which is Sulforhodamine B (SRB) protein staining method, which calculates the inhibition ratio of a drug against the proliferation of cancer cells through measuring the change in optical absorption value generated after the drug has influenced the cancer cells. Inhibition ratio (%)=(OD control−OD inhibitor−OD blank)/(OD control−OD blank)×100%
OD control: the OD value of the well of normally grown cells without the action of a drug.
OD inhibitor: the OD value of the well of cells with the action of added compounds to be screened.
OD blank: the OD value of the well of parallel control without seeding cells.
(§2) The median inhibitory concentration (IC50) value is obtained by the software GraphPad Prism 5 through calculation.
(§3) The human breast cancer cells in the logarithmic phase were inoculated to 96-well culture plates (180 μl/well) at a density of about 5500/well. The well for each concentration was triplicated. Solvent control wells of corresponding concentrations and apoptosis-free wells were also established. […]

[3] = test system: human colon cancer cells (HT-29); experiment: SRB proliferation assay, human colon cancer cells (HT-29); format: cell-based; details: HT-29, 72 hr, read-out: IC50 against HT-29 cells
Excerpt: as §1, §2
as §3, with “established. After adherent growth for 24 hr, the compounds of the present invention were added at 20 μl/well, and the cells were cultured for 72 hr under the conditions of 10% Hyclone fetal calf serum, 37° C., 5% CO2.” for “established.”
According to the experimental method of Test Example 1, the IC50 value of the compound of the present invention against HT-29 cells was calculated as: […]

[4] = test system: human lung cancer cells (H1975); experiment: SRB proliferation assay, human lung cancer cells (H1975); format: cell-based; details: NCI-H1975, H1975, 72 hr, read-out: IC50 against H1975 cells
Excerpt: as §1, §2
as §3, with “established. After adherent growth for 24 hr, the compounds of the present invention were added at 20 μl/well, and the cells were cultured for 72 hr under the conditions of 10% Hyclone fetal calf serum, 37° C., 5% CO2.” for “established.”
According to the experimental method of Test Example 1, the IC50 value of the compound of the present invention against H1975 cells was calculated as: […]

c-Met receptor = c-Met receptor (Homo sapiens (Human), UniProt P08581); experiment: Western blot test of c-Met phosphorylation in EGF-stimulated H1975 cells; format: cell-based; details: EGF induction, 1 μM and 5 μM, 6 hr
Chain of c-Met receptor (P08581 25-1390): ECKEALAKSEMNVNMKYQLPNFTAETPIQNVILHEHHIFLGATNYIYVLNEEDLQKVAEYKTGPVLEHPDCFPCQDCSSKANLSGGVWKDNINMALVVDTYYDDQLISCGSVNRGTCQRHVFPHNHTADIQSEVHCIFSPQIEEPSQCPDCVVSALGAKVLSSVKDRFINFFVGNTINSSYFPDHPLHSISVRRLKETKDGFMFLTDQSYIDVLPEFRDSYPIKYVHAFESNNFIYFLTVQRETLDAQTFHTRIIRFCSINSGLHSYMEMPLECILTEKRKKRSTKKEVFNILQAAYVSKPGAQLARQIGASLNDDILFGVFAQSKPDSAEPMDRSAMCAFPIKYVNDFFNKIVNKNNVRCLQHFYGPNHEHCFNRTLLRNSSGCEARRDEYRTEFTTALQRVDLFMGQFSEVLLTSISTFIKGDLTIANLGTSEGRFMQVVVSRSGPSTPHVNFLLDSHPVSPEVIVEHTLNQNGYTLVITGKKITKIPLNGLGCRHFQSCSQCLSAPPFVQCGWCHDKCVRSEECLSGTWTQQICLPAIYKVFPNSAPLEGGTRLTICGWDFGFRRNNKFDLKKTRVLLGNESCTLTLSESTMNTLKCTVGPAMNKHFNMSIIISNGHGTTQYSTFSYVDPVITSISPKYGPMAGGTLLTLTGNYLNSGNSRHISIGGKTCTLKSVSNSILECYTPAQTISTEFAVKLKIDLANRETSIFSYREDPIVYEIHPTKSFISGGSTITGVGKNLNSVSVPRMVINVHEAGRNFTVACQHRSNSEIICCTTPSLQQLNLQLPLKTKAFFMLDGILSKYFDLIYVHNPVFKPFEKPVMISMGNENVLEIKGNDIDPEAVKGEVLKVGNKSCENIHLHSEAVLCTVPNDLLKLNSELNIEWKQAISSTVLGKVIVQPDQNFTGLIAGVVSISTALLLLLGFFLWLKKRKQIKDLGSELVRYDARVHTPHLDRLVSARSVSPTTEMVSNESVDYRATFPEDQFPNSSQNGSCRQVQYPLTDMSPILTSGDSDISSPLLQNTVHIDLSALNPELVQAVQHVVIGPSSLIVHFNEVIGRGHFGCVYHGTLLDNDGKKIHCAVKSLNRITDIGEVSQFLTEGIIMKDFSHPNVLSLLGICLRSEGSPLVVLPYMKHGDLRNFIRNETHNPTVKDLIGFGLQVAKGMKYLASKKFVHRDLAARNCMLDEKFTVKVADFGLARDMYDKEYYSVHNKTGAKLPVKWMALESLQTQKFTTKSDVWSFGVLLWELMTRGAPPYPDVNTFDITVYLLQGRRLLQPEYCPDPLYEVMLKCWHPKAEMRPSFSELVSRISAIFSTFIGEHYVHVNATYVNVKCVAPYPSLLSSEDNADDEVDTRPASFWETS
Protocol: The human lung cancer cells (H1975) in the logarithmic phase were inoculated to 6-well culture plates at a density of about 4×10^5/well. The cells were adherently grown for 24 hr. Four wells were selected, wherein two wells were added with the compound of Example 2 respectively (1 μM/well and 5 μM/well). The other two wells were not added with drugs. The cells were cultured for 6 hr under the conditions of 10% Hyclone fetal calf serum, 37° C., 5% CO2. EGF was added to the above two wells and one of the drug-free well to stimulate for 15 min. After the cells were washed with cold PBS, sample loading buffer (2×SDS Lysis Buffer+1M DTT+H2O) was added to lyse the cells. The lysate of the cells was heated for 10 min at 100° C., centrifuged for 5 min at 12000 g, and the supernatant was took out. The supernatant was subjected to SDS-PAGE electrophoretic analysis. At 25 mA constant current, after wetly transferred for 2 h, the proteins were transferred to PVDF (polyvinylidine difluoride) membrance. The PVDF membrance was took out, incubated with the corresponding primary antibody (pMet) at 4° C. overnight. […] After washing with TBST for 3 times, images were developed with ECL luminescence kit, and were mounted. […]

Chain of receptor tyrosine kinase c-Met (c-Met kinase domain recombination protein) (P08581 1078-1345): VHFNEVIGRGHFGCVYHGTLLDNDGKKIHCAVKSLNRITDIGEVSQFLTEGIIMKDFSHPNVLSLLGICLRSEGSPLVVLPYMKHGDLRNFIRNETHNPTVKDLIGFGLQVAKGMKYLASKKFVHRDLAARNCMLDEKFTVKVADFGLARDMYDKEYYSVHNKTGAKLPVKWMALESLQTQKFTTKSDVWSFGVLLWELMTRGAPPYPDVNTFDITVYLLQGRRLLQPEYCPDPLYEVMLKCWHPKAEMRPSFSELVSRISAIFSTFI

Row | SMILES | Average inhibition ratio (%) ([1]; 0.8 nM) | Average inhibition ratio (%) ([1]; 2 nM) | Average inhibition ratio (%) ([1]; 7 nM) | Average inhibition ratio (%) ([1]; 22 nM) | Average inhibition ratio (%) ([1]; 66 nM) | Average inhibition ratio (%) ([1]; 200 nM) | IC50 [1] | IC50 [2] | IC50 [3] | IC50 [4] | inhibition of the phosphorylation of c-Met receptor (c-Met receptor)
1 | C[C@H](Oc1cc(-c2cn(C3CCNCC3)nn2)cnc1N)c1c(Cl)ccc(F)c1Cl [Example 12] | 7.9% | 18.2% | 39.8% | 61.7% | 76.3% | 77.5% | 11.7 ± 2.3 nM | – | – | – | –
2 | CC(Oc1cc(-c2cn(C3CCNCC3)nn2)cnc1N)c1c(Cl)ccc(F)c1Cl (stereo not shown) [Example 2, 3-(1-(2,6-dichloro-3-fluorophenyl)ethoxy)-5-(1-(piperidin-4-yl)-1H-1,2,3-triazol-4-yl)-2-aminopyridine] | 8.4% | 26.9% | 51.0% | 69.9% | 76.8% | 78.0% | 6.7 ± 2.3 nM | 9530 nM | 5260 nM | 11700 nM | effectively inhibit
3 | C[C@@H](Oc1cc(-c2cn(C3CCNCC3)nn2)cnc1N)c1c(Cl)ccc(F)c1Cl [Example 13, (R)-3-(1-(2,6-dichloro-3-fluorophenyl)ethoxy)-5-(1-(piperidin-4-yl)-1H-1,2,3-triazol-4-yl)-2-aminopyridine] | 31.1% | 62.2% | 67.7% | 79.7% | 88.0% | 88.2% | 1.7 ± 0.4 nM | – | – | – | –

— patent publication US8952002B2, “Aminoheteroaryl compounds and preparation method and use thereof” (Shanghai Allist Pharmaceuticals, Inc., priority 2012, dated 2015)
